Source: US10485235B2, “Aryloxypyrimidinyl ethers as herbicides” (FMC Corporation, priority 2015, dated 2019)

System: foxtail, giant (giant foxtail, Setaria faberii)
Assay: Test A preemergence, giant foxtail
Assay type: in vivo
Settings: Preemergence, 31 g ai/ha; 0 to 100 scale (0 no effect, 100 complete control)
In short: (§1)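 Test chemicals in a solvent/surfactant mixture were applied as a preemergence directed soil spray on seeded loam–sand, or postemergence to plants 2–10 cm tall at the one- to two-leaf stage. After roughly 10 days in a greenhouse, injury was visually rated versus untreated controls on a 0 (no effect) to 100 (complete control) scale.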

Compound | Plant response rating, Foxtail, Giant
FC(F)(F)CCCOc1c(Cl)cccc1Oc1ncc(Cl)cn1 [Compound 46] | 40

Same assay, conditions: Preemergence, 125 g ai/ha; 0 to 100 scale (0 no effect, 100 complete control)

Compound | Plant response rating, Foxtail, Giant
FC(F)(F)CCCOc1c(Cl)cccc1Oc1ncc(Cl)cn1 [Compound 46] | 100

System: wheat (Triticum aestivum)
Assay: Test A postemergence, wheat
Assay type: in vivo
Settings: 31 g ai/ha, postemergence; 0 to 100 scale, 0 is no effect, 100 is complete control; approximately 10 days
In short: as §1

Compound | Plant response rating, Wheat
FC(F)(F)CCCOc1c(Cl)cccc1Oc1ncc(Cl)cn1 [Compound 46] | 0

Same assay, conditions: 125 g ai/ha, postemergence; 0 to 100 scale, 0 is no effect, 100 is complete control; approximately 10 days

Compound | Plant response rating, Wheat
FC(F)(F)CCCOc1c(Cl)cccc1Oc1ncc(Cl)cn1 [Compound 46] | 0

System: galium (catchweed bedstraw, Galium aparine)
Assay: Test A postemergence, galium
Assay type: in vivo
Settings: 31 g ai/ha, postemergence; 0 to 100 scale, 0 is no effect, 100 is complete control; approximately 10 days
In short: as §1

Compound | Plant response rating, Galium
FC(F)(F)CCCOc1c(Cl)cccc1Oc1ncc(Cl)cn1 [Compound 46] | 30

Same assay, conditions: 125 g ai/ha, postemergence; 0 to 100 scale, 0 is no effect, 100 is complete control; approximately 10 days

Compound | Plant response rating, Galium
FC(F)(F)CCCOc1c(Cl)cccc1Oc1ncc(Cl)cn1 [Compound 46] | 70

System: ryegrass, Italian (Italian ryegrass, Lolium multiflorum)
Assay: Test A postemergence, Italian ryegrass
Assay type: in vivo
Settings: 31 g ai/ha, postemergence; 0 to 100 scale, 0 is no effect, 100 is complete control; approximately 10 days
In short: as §1

Compound | Plant response rating, Ryegrass, Italian
FC(F)(F)CCCOc1c(Cl)cccc1Oc1ncc(Cl)cn1 [Compound 46] | 0

Same assay, conditions: 125 g ai/ha, postemergence; 0 to 100 scale, 0 is no effect, 100 is complete control; approximately 10 days

Compound | Plant response rating, Ryegrass, Italian
FC(F)(F)CCCOc1c(Cl)cccc1Oc1ncc(Cl)cn1 [Compound 46] | 10

System: barnyardgrass (Echinochloa crus-galli)
Assay: Test B flooded paddy test, barnyardgrass
Assay type: in vivo
Settings: 250 g ai/ha, Flood; visual rating after 13 to 15 days; scale 0 to 100, 0 is no effect, 100 is complete control
In short: (§2)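 Visual ratings, 0 = no effect to 100 = complete control, versus controls after 13 to 15 days in greenhouse. Test compounds were added to paddy water kept 3 cm over the soil surface, on plants at 2-leaf stage.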

Compound | Plant response rating, Barnyardgrass
FC(F)(F)CCCOc1c(Cl)cccc1Oc1ncc(Cl)cn1 [Compound 46] | 0

System: blackgrass (Alopecurus myosuroides)
Assay: Test A postemergence, blackgrass
Assay type: in vivo
Settings: 31 g ai/ha, postemergence; 0 to 100 scale, 0 is no effect, 100 is complete control; approximately 10 days
In short: as §1

Compound | Plant response rating, Blackgrass
FC(F)(F)CCCOc1c(Cl)cccc1Oc1ncc(Cl)cn1 [Compound 46] | 0

Same assay, conditions: 125 g ai/ha, postemergence; 0 to 100 scale, 0 is no effect, 100 is complete control; approximately 10 days

Compound | Plant response rating, Blackgrass
FC(F)(F)CCCOc1c(Cl)cccc1Oc1ncc(Cl)cn1 [Compound 46] | 40

System: barnyardgrass (Echinochloa crus-galli)
Assay: Test A preemergence, barnyardgrass
Assay type: in vivo
Settings: Preemergence, 31 g ai/ha; 0 to 100 scale (0 no effect, 100 complete control)
In short: as §1

Compound | Plant response rating, Barnyardgrass
FC(F)(F)CCCOc1c(Cl)cccc1Oc1ncc(Cl)cn1 [Compound 46] | 10

Same assay, conditions: Preemergence, 125 g ai/ha; 0 to 100 scale (0 no effect, 100 complete control)

Compound | Plant response rating, Barnyardgrass
FC(F)(F)CCCOc1c(Cl)cccc1Oc1ncc(Cl)cn1 [Compound 46] | 80

System: barnyardgrass (Echinochloa crus-galli)
Assay: Test A postemergence, barnyardgrass
Assay type: in vivo
Settings: 31 g ai/ha, postemergence; 0 to 100 scale, 0 is no effect, 100 is complete control; approximately 10 days
In short: as §1

Compound | Plant response rating, Barnyardgrass
FC(F)(F)CCCOc1c(Cl)cccc1Oc1ncc(Cl)cn1 [Compound 46] | 0

Same assay, conditions: 125 g ai/ha, postemergence; 0 to 100 scale, 0 is no effect, 100 is complete control; approximately 10 days

Compound | Plant response rating, Barnyardgrass
FC(F)(F)CCCOc1c(Cl)cccc1Oc1ncc(Cl)cn1 [Compound 46] | 30

System: ragweed (common ragweed, Ambrosia elatior)
Assay: Test A preemergence, ragweed
Assay type: in vivo
Settings: Preemergence, 31 g ai/ha; 0 to 100 scale (0 no effect, 100 complete control)
In short: as §1

Compound | Plant response rating, Ragweed
FC(F)(F)CCCOc1c(Cl)cccc1Oc1ncc(Cl)cn1 [Compound 46] | 0

Same assay, conditions: Preemergence, 125 g ai/ha; 0 to 100 scale (0 no effect, 100 complete control)

Compound | Plant response rating, Ragweed
FC(F)(F)CCCOc1c(Cl)cccc1Oc1ncc(Cl)cn1 [Compound 46] | 0

System: rice (Oryza sativa)
Assay: Test B flooded paddy test, rice
Assay type: in vivo
Settings: 250 g ai/ha, Flood; visual rating after 13 to 15 days; scale 0 to 100, 0 is no effect, 100 is complete control
In short: as §2

Compound | Plant response rating, Rice
FC(F)(F)CCCOc1c(Cl)cccc1Oc1ncc(Cl)cn1 [Compound 46] | 0

System: ducksalad (Heteranthera limosa)
Assay: Test B flooded paddy test, ducksalad
Assay type: in vivo
Settings: 250 g ai/ha, Flood; visual rating after 13 to 15 days; scale 0 to 100, 0 is no effect, 100 is complete control
In short: as §2

Compound | Plant response rating, Ducksalad
FC(F)(F)CCCOc1c(Cl)cccc1Oc1ncc(Cl)cn1 [Compound 46] | 98

System: kochia (Kochia scoparia)
Assay: Test A postemergence, kochia
Assay type: in vivo
Settings: 31 g ai/ha, postemergence; 0 to 100 scale, 0 is no effect, 100 is complete control; approximately 10 days
In short: as §1

Compound | Plant response rating, Kochia
FC(F)(F)CCCOc1c(Cl)cccc1Oc1ncc(Cl)cn1 [Compound 46] | 50

Same assay, conditions: 125 g ai/ha, postemergence; 0 to 100 scale, 0 is no effect, 100 is complete control; approximately 10 days

Compound | Plant response rating, Kochia
FC(F)(F)CCCOc1c(Cl)cccc1Oc1ncc(Cl)cn1 [Compound 46] | 80

System: pigweed (Amaranthus retroflexus)
Assay: Test A postemergence, pigweed
Assay type: in vivo
Settings: 31 g ai/ha, postemergence; 0 to 100 scale, 0 is no effect, 100 is complete control; approximately 10 days
In short: as §1

Compound | Plant response rating, Pigweed
FC(F)(F)CCCOc1c(Cl)cccc1Oc1ncc(Cl)cn1 [Compound 46] | 50

Same assay, conditions: 125 g ai/ha, postemergence; 0 to 100 scale, 0 is no effect, 100 is complete control; approximately 10 days

Compound | Plant response rating, Pigweed
FC(F)(F)CCCOc1c(Cl)cccc1Oc1ncc(Cl)cn1 [Compound 46] | 90

System: sedge, umbrella (small-flower umbrella sedge, Cyperus difformis)
Assay: Test B flooded paddy test, umbrella sedge
Assay type: in vivo
Settings: 250 g ai/ha, Flood; visual rating after 13 to 15 days; scale 0 to 100, 0 is no effect, 100 is complete control
In short: as §2

Compound | Plant response rating, Sedge, Umbrella
FC(F)(F)CCCOc1c(Cl)cccc1Oc1ncc(Cl)cn1 [Compound 46] | 100

System: pigweed (Amaranthus retroflexus)
Assay: Test A preemergence, pigweed
Assay type: in vivo
Settings: Preemergence, 31 g ai/ha; 0 to 100 scale (0 no effect, 100 complete control)
In short: as §1

Compound | Plant response rating, Pigweed
FC(F)(F)CCCOc1c(Cl)cccc1Oc1ncc(Cl)cn1 [Compound 46] | 0

Same assay, conditions: Preemergence, 125 g ai/ha; 0 to 100 scale (0 no effect, 100 complete control)

Compound | Plant response rating, Pigweed
FC(F)(F)CCCOc1c(Cl)cccc1Oc1ncc(Cl)cn1 [Compound 46] | 100

System: ragweed (common ragweed, Ambrosia elatior)
Assay: Test A postemergence, ragweed
Assay type: in vivo
Settings: 31 g ai/ha, postemergence; 0 to 100 scale, 0 is no effect, 100 is complete control; approximately 10 days
In short: as §1

Compound | Plant response rating, Ragweed
FC(F)(F)CCCOc1c(Cl)cccc1Oc1ncc(Cl)cn1 [Compound 46] | 0

Same assay, conditions: 125 g ai/ha, postemergence; 0 to 100 scale, 0 is no effect, 100 is complete control; approximately 10 days

Compound | Plant response rating, Ragweed
FC(F)(F)CCCOc1c(Cl)cccc1Oc1ncc(Cl)cn1 [Compound 46] | 10

System: kochia (Kochia scoparia)
Assay: Test A preemergence, kochia
Assay type: in vivo
Settings: Preemergence, 31 g ai/ha; 0 to 100 scale (0 no effect, 100 complete control)
In short: as §1

Compound | Plant response rating, Kochia
FC(F)(F)CCCOc1c(Cl)cccc1Oc1ncc(Cl)cn1 [Compound 46] | 0

Same assay, conditions: Preemergence, 125 g ai/ha; 0 to 100 scale (0 no effect, 100 complete control)

Compound | Plant response rating, Kochia
FC(F)(F)CCCOc1c(Cl)cccc1Oc1ncc(Cl)cn1 [Compound 46] | 80

System: corn (Zea mays)
Assay: Test A postemergence, corn
Assay type: in vivo
Settings: 31 g ai/ha, postemergence; 0 to 100 scale, 0 is no effect, 100 is complete control; approximately 10 days
In short: as §1

Compound | Plant response rating, Corn
FC(F)(F)CCCOc1c(Cl)cccc1Oc1ncc(Cl)cn1 [Compound 46] | 10

Same assay, conditions: 125 g ai/ha, postemergence; 0 to 100 scale, 0 is no effect, 100 is complete control; approximately 10 days

Compound | Plant response rating, Corn
FC(F)(F)CCCOc1c(Cl)cccc1Oc1ncc(Cl)cn1 [Compound 46] | 20

System: foxtail, giant (giant foxtail, Setaria faberii)
Assay: Test A postemergence, giant foxtail
Assay type: in vivo
Settings: 31 g ai/ha, postemergence; 0 to 100 scale, 0 is no effect, 100 is complete control; approximately 10 days
In short: as §1

Compound | Plant response rating, Foxtail, Giant
FC(F)(F)CCCOc1c(Cl)cccc1Oc1ncc(Cl)cn1 [Compound 46] | 20

Same assay, conditions: 125 g ai/ha, postemergence; 0 to 100 scale, 0 is no effect, 100 is complete control; approximately 10 days

Compound | Plant response rating, Foxtail, Giant
FC(F)(F)CCCOc1c(Cl)cccc1Oc1ncc(Cl)cn1 [Compound 46] | 60

System: ryegrass, Italian (Italian ryegrass, Lolium multiflorum)
Assay: Test A preemergence, Italian ryegrass
Assay type: in vivo
Settings: Preemergence, 31 g ai/ha; 0 to 100 scale (0 no effect, 100 complete control)
In short: as §1

Compound | Plant response rating, Ryegrass, Italian
FC(F)(F)CCCOc1c(Cl)cccc1Oc1ncc(Cl)cn1 [Compound 46] | 0

Same assay, conditions: Preemergence, 125 g ai/ha; 0 to 100 scale (0 no effect, 100 complete control)

Compound | Plant response rating, Ryegrass, Italian
FC(F)(F)CCCOc1c(Cl)cccc1Oc1ncc(Cl)cn1 [Compound 46] | 10
